Here are results for 10 molecules from patent US10240154B2, “RNA products and uses thereof” (IFOM Fondazione Istituto FIRC di Oncologia Molecolare, priority 2012, dated 2019).

For data set [1], the target named is T1, RNA polymerase II (Mus musculus, UniProt P08775).
T1 construct: endogenous in cells; host or cells: NIH2/4 mouse cells
The data set is described as follows: 53BP1 focus reformation at the I-Sce I-induced DSB in RNase A-treated NIH2/4 cells. The class given is cell-based. The following applies: data not shown. The method, then:
(§1) Cells were plated on poly-D-lysinated coverslips and irradiated with 2Gy of IR. 1 h after HeLa cells were permeabilized with 2% Tween 20 in PBS for 10 minutes at RT while I-Sce I-transfected NIH2/4 cells were permeabilized in 0.5% Tween 20 in PBS for 10 minutes at RT. RNase A treatment was carried out in 1 ml of 1 mg/ml Ribonuclease A from bovine pancreas (Sigma-Aldrich cat n: R5503) in PBS for 25 minutes at room temperature. After RNase A digestion, the samples were washed with PBS, treated with 80 units of RNase inhibitor (RNaseOUT Invitrogen 40 units/μl) and 2 μg/ml of α-amanitin (SIGMA) for 15 minutes in a total volume of 70 μl. […] Then, RNase A-treated cells were incubated with total, small or gel extracted RNA, or the same amount of tRNA, for additional 15 minutes at room temperature. […] Cell were then fixed with 4% paraformaldehyde or methanol:acetone 1:1.

Data set [2] deals with T2, RNA polymerase II (Homo sapiens, UniProt P24928).
T2 construct: endogenous in cells; host or cells: HeLa
The data set is described as follows: Spontaneous 53BP1 foci reformation after RNase A treatment in irradiated HeLa cells. It counts as cell-based. The following applies: irradiated (2Gy) HeLa, RNase A then RNaseOUT, with α-amanitin for 10 or 45 minutes. On the procedure: as §1, with “After RNase A digestion, the samples were washed with PBS, treated with 80 units of RNase inhibitor (RNaseOUT Invitrogen 40 units/μl) and 2 μg/ml of α-amanitin (SIGMA) for 15 minutes in a total volume of 70 μl.” left out

Data set [3] deals with NIH2/4 cells. The data set is described as follows: Short RNA sequencing of NIH2/4 cells after Dicer or Drosha knockdown by shRNA. The class given is cell-based, mouse. The following applies: for miRNA expression (spike-normalized reads mapping to miRBase): NIH2/4, cut and uncut, compared to wildtype; for fraction of 22-23 nt vs total short RNAs at the locus: NIH2/4, uncut and cut conditions. The method, then: Nuclei were isolated the day after the adenoviral infection.
Nuclear RNA shorter than 200 nt was purified using mirVana™ microRNA Isolation Kit. RNA quality was checked on a small RNA chip (Agilent) before library preparation (Supplementary FIG. 23a). For Illumina hi Seq Version3 sequencing, spike RNA was added to each RNA sample in the RNA:spike ratio of 10,000:1 before library preparation and libraries for Illumina GA IIX were prepared without spike. An improved short RNA library preparation protocol was used to prepare libraries^68. In brief, adenylated 3′ adapters were ligated to 3′ ends of 3′-OH short RNAs using a truncated RNA ligase enzyme followed by 5′ adapter ligation to 5′-monophosphate ends using RNA ligase enzyme, ensuring specific ligation of undegraded short RNAs. cDNA was prepared using a primer specific to the 3′ adapter in the presence of Dimer eliminator and amplified for 12-15 PCR cycles using a special forward primer targeting the 5′ adapter containing additional sequence for sequencing and a reverse primer targeting the 3′ adapter. The amplified cDNA library was run on a 6% polyacrylamide gel and the 100 bp band containing cDNAs up to 33 nt was extracted using standard extraction protocols. Libraries were sequenced after quality check on a DNA high sensitivity chip (Agilent). Multiplexed barcode sequencing was performed on Illumina GA-IIX (35 bp Single end reads) and Illumina Hi seq version3 (51 bp single end reads). Sequences of all the DDRNAs identified in this study will be available for free downloading by the time of publication at short read archive.
Statistical significance of downregulation of normalized miRNAs in Dicer and Drosha knockdown samples were calculated using the Wilcoxon signed-rank test.
The differences in the fraction of 22-23 nt vs total short RNAs at the locus between the wildtype, Dicer knockdown, and Drosha knockdown before and after cut was calculated by fitting a negative binomial model to the sRNA count data and performing a likelihood ratio test, keeping the fraction of 22-23 nt vs total short RNAs at the locus fixed across conditions under the null hypothesis and allowing it to vary between conditions under the alternative hypothesis.

Data set [4] concerns DDRNAs with telomeric sequence. Put plainly: LNA transfection, 53BP1 foci after telomere uncapping in T19 fibrosarcoma cells. The class given is cell-based, human. The method, then:
(§2) (for the experiments in FIGS. 35-36). T19 fibrosarcoma cells (van Steensel, Cell 1998) were grown in DMEM supplemented with 10% fetal bovine serum, 1% glutamine and doxycycline (100 ng/ml). For induction, cells were grown without doxycycline for at least 7-8 days. CRE-ER TRF2^flox/flow MEFs (Lazzerini Denchi and de Lange, Nature 2007) were grown in DMEM supplemented with 10% fetal bovine serum and 1% glutamine. For induction, cells were grown in presence of 4-hydroxytamoxifen (600 nM) for 48 hours. For BrdU incorporation, cells were labeled with 10 μg/ml bromodeoxyuridine (BrdU, Sigma) for 16 hours and incorporation was evaluated by immunofluorescence after DNA denaturation.
(§3) (for the experiments in FIGS. 35-36). Cells were fixed with 1:1 methanol/acetone solution for 2 minutes at room temperature, or 4% paraformaldehyde for 10 minutes at room temperature. After blocking, cells were stained with primary antibodies for 1 h at room temperature, washed and incubated with conjugated secondary antibodies for 40 minutes at RT. Nuclei were stained with DAPI (1 μg/ml).
(§4) (for the experiments in FIG. 36). LNA were first boiled at 90° C. for 5 minutes, chilled at 4° C. for 5 minutes and transfected with Lipofectamine RNAiMAX (Invitrogen) at the final concentration of 200 nM.

Data set [5] has as its system DDRNAs with telomeric sequence. The data set is described as follows: LNA transfection, BrdU incorporation after telomere uncapping in T19 fibrosarcoma cells. It counts as cell-based, human. The following applies: LNA 200 nM, 3 days following LNA transfection. On the procedure: as §2, §4
The test system of data set [6] is HeLa cells. The data set is described as follows: DDR foci formation in the RNase A in vitro cell system with translation inhibitor. The class given is cell-based, human. The following applies: data not shown. On the procedure: as §1
The test system of a further data set is Dicer. The following applies: RNA with aptamer-binding site for paromomycin; according to the amount of ligand; cited from earlier work.
Another data set deals with HEK293 cells. Put plainly: G2/M checkpoint assay in HEK293 cells after shRNA knockdown. It counts as cell-based, human. The following applies: HEK293, 12, 24 and 36 hours post irradiation (5Gy). The method, then:
HEK 293 calcium phosphate transfected cells were irradiated with 5Gy and allowed to respond to IR-induced DNA damage in a cell culture incubator for 12, 24 or 36 hours. Then, at these three time points post irradiation, together with not irradiated cells, 1×10^6 cells were collected for Fluorescence Activated Cell Sorting (FACS) analysis, fixed in 75% ethanol in PBS, 30 minutes on ice. Afterwards, cells were treated 12 hours with 40 μg/ml of RNase A and incubated at least 1 h with propidium iodide (PI). FACS profiles were obtained by the analysis of at least 5×10^5 cells. In the complementation experiments HEK 293 were transfected using Lipofectamine RNAi Max (Invitrogen) and 48 hours later irradiated with 5Gy. Cells were then treated as explained above.

Data set [7] concerns NIH2/4 cells. The data set is described as follows: RNase A treatment of I-Sce I cut NIH2/4 cells, foci colocalizing with Cherry-Lac. The class given is cell-based, mouse. On the procedure:
as §1

The subject of data set [8] is HeLa cells. Put plainly: RNase A treatment of irradiated permeabilized HeLa cells, DDR foci. The class given is cell-based, human. The following applies: irradiated HeLa cells (2Gy), RNase A 1 mg/ml. On the procedure: as §1
The next data set relates to TRF2^flox/flox MEFs. Put plainly: RNase A treatment of TRF2 knockout MEFs with uncapped telomeres. It counts as cell-based, mouse. The following applies: RNase A vs BSA. The method, then: as §2, §3
(for the experiments in FIG. 35). CRE-ER TRF2^flox/flox MEFs (Lazzerini Denchi and de Lange, Nature 2007) were induced to generate TRF2 knockout and telomere uncapping. 48 hours later cells were permeabilized with 0.6% Tween 20 in PBS for 15 min at room temperature.

The mark [9] stands for this setting: induced (Flag+) T19 cells, LNA 200 nM transfected at day 13 from induction, compared to control LNA.
The mark [10] stands for this setting: uninduced (Flag−) T19 cells, LNA 200 nM.
[11] abbreviates: Flag+ T19 cells, BrdU 16 hours, compared to Cntrl LNA.

For α-amanitin, the “53BP1 focus reformation at the I-Sce I-induced DSB” value on RNA polymerase II [1] was “prevents 53BP1 focus reformation”. For the same molecule, at RNA polymerase II [2], the 53BP1-foci reformation entry was “prevents 53BP1-foci reformation”.

On to “shDrosha: shRNA for mouse Drosha, SEQ ID NO:4, lentiviral pLKO.1 (CCGGCCTGGAATATGTCCACACTTTCTCGAGAAAGTGTGGACATATTCCAGGTTTTTG)”, for which, in the data set on NIH2/4 cells [3], the “miRNA expression (spike-normalized reads mapping to miRBase)” value is given as “significantly lower expressed” and the “fraction of 22-23 nt vs total short RNAs at the locus” value is recorded as “decreases”.

In the case of “LNA 5: LNA, SEQ ID NO: 61, CCCTAACCCTAACCCTAACCC; antisense telomeric sequence; control in FIG. 34”, the 53BP1 foci-positive cells entry is recorded as “decrease in DDR-positive cells” in [4] (setting [9]) and “no difference was observed” in [4] (setting [10]). The “percentage of BrdU-positive cells” value was “significant increase” in [5] (setting [11]) and “no difference is observed” in [5] (Flag− T19 cells).

As for `C[C@@H]1C[C@@H]([C@H](O)CC2CC(=O)NC(=O)C2)C(=O)[C@@H](C)C1` [cyclohexamide], in the data set with HeLa cells [6], the DDR foci formation entry was “no impact on DDR foci formation”.

Regarding “LNA 3: LNA, SEQ ID NO: 59, ACTGATAGGGAGTGGTAAACT; unrelated control in FIG. 36 (LNA-modified oligonucleotide, LNA positions not given here)”, in [4] (setting [9]), the 53BP1 foci-positive cells entry is on record as “no effect”.

With “LNA 6: LNA, SEQ ID NO: 62, GGGTTAGGGTTAGGGTTAGGG; sense telomeric sequence (LNA)”, the 53BP1 foci-positive cells entry in [4] (setting [9]) is “decrease in DDR-positive cells”; in [4] (setting [10]), “no difference was observed”. Besides, the “percentage of BrdU-positive cells” value is listed as “significant increase” in data set [5] (setting [11]) and “no difference is observed” in data set [5] (Flag− T19 cells).

In the case of `NC[C@@H]1O[C@H](O[C@H]2[C@@H](O)[C@H](O[C@@H]3[C@@H](O)[C@H](N)C[C@H](N)[C@H]3O[C@H]3O[C@H](CO)[C@@H](O)[C@H](O)[C@H]3N)O[C@@H]2CO)[C@H](N)[C@@H](O)[C@@H]1O` [paromomycin], in the data set with Dicer, the Dicer activity entry is listed as “decrease of Dicer activity”.

In the case of “shDicer: shRNA for mouse Dicer, SEQ ID NO:3, lentiviral pLKO.1 (CCGGGCCTCACTTGACCTGAAGTATCTCGAGATACTTCAGGTCAAGTGAGGCTTTTT)”, in the data set with NIH2/4 cells [3], the “miRNA expression (spike-normalized reads mapping to miRBase)” value was “significantly lower expressed” and the “fraction of 22-23 nt vs total short RNAs at the locus” value is “decreases”.

As to “shRNA against p53: pRETROSUPER shp53, short hairpin SEQ ID NO:2 (guide AGTAGATTACCACTGGAGTCTT)”, the “G2/M checkpoint (FACS cell-cycle profile)” value in the data set on HEK293 cells was “did not arrest upon DNA damage”.

B1: RNase A: Ribonuclease A from bovine pancreas (Sigma-Aldrich R5503), broad-specificity RNA nuclease (protein, UniProt P61823 27-150, looked up)
Ribonuclease pancreatic: KETAAAKFERQHMDSSTSAASSSNYCNQMMKSRNLTKDRCKPVNTFVHESLADVQAVCSQKNVACKNGQTNCYQSYSTMSITDCRETGSSKYPNCAYKTTQANKHIIVACEGNPYVPVHFDASV
For the molecule B1, in the data set with NIH2/4 cells [7], the “53BP1, pATM and MRE11 foci colocalizing with the Cherry-Lac focus” value was “lost”. Further, in the data set on HeLa cells [8], the “53BP1, pATM, pS/TQ and MDC1 foci” value is recorded as “strongly reduced”; the γH2AX accumulation result is listed as “only slightly affected”. Besides, in the data set with TRF2^flox/flox MEFs, the 53BP1 foci entry is “disassemble” and the γH2AX foci result was “stable”.
